Test results: the NIST ThermoML archive (doi:10.1021/je600518s)

Details: Liquid, Ebulliometric method (Recirculating still)

COC(C)=O [methyl ethanoate]
Details	vapor or sublimation pressure [kPa]
304 K	37.14
306 K	40.4
308 K	43.89
310 K	47.62
312 K	51.6
314 K	55.85
316 K	60.38
318 K	65.21
320 K	70.34
322 K	75.79
324 K	81.58
326 K	87.72
328 K	94.23
330 K	101.12
332 K	108.41
334 K	116.11
336 K	124.25
338 K	132.83
